Key:
Details in all cases: incubation time: 72 h
BT-474 [1] = assay: normalised response (% of control), CellTox Green; higher = less cell death (100 = DMSO, 0 = benzethonium chloride kill control)
Procedure, shortened: (§1)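 Plates were normalised with 0.1 % DMSO as 100 and a positive kill control as 0. Breast cancer cell lines in 20 µl suspension had been seeded into 384-well plates with compound at 5 concentrations in 10-fold steps over a compound-specific 10,000-fold range, incubated 72 h, and read for CellTox Green fluorescence (485/520 nm) followed by CellTiter-Glo luminescence. Each value is the normalised signal at a single concentration.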

BT-549 [2] = assay: as above
Procedure, shortened: as §1

CAL-120 [3] = assay: as above
Procedure, shortened: as §1

CAL-148 [4] = assay: as above
Procedure, shortened: as §1

CAL-51 [5] = assay: as above
Procedure, shortened: as §1

CAL-85-1 [6] = assay: as above
Procedure, shortened: as §1

DU-4475 [7] = assay: as above
Procedure, shortened: as §1

HCC1143 [8] = assay: as above
Procedure, shortened: as §1

HCC1599 [9] = assay: as above
Procedure, shortened: as §1

HCC1937 [10] = assay: as above
Procedure, shortened: as §1

HDQ-P1 [11] = assay: as above
Procedure, shortened: as §1

Hs578T [12] = assay: as above
Procedure, shortened: as §1

MCF-10A [13] = assay: as above
Procedure, shortened: as §1

MDA-MB-231 [14] = assay: as above
Procedure, shortened: as §1

MDA-MB-436 [15] = assay: as above
Procedure, shortened: as §1

MDA-MB-453 [16] = assay: as above
Procedure, shortened: as §1

MDA-MB-468 [17] = assay: as above
Procedure, shortened: as §1

MFM-223 [18] = assay: as above
Procedure, shortened: as §1

BT-474 [19] = assay: normalised response (% of control), CellTiter-Glo; higher = more viable cells (100 = DMSO, 0 = benzethonium chloride kill control)
Protocol: (§2)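 DSRT, 72 h incubation, CellTox Green / CellTiter-Glo readout. Signal is normalised to DMSO and benzethonium chloride controls. Value is the normalised response at dose 3.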

BT-549 [20] = assay: as above
Protocol: as §2

CAL-120 [21] = assay: as above
Protocol: as §2

CAL-148 [22] = assay: as above
Protocol: as §2

CAL-51 [23] = assay: as above
Protocol: as §2

CAL-85-1 [24] = assay: as above
Protocol: as §2

DU-4475 [25] = assay: as above
Protocol: as §2

HCC1143 [26] = assay: as above
Protocol: as §2

HCC1599 [27] = assay: as above
Protocol: as §2

HCC1937 [28] = assay: as above
Protocol: as §2

HDQ-P1 [29] = assay: as above
Protocol: as §2

Hs578T [30] = assay: as above
Protocol: as §2

MCF-10A [31] = assay: as above
Protocol: as §2

MDA-MB-231 [32] = assay: as above
Protocol: as §2

MDA-MB-436 [33] = assay: as above
Protocol: as §2

MDA-MB-453 [34] = assay: as above
Protocol: as §2

MDA-MB-468 [35] = assay: as above
Protocol: as §2

MFM-223 [36] = assay: as above
Protocol: as §2

SK-BR-3 = assay: as above
Protocol: as §2

SMILES	normalised response (BT-474 [1]) [%]	normalised response (BT-549 [2]) [%]	normalised response (CAL-120 [3]) [%]	normalised response (CAL-148 [4]) [%]	normalised response (CAL-51 [5]) [%]	normalised response (CAL-85-1 [6]) [%]	normalised response (DU-4475 [7]) [%]	normalised response (HCC1143 [8]) [%]	normalised response (HCC1599 [9]) [%]	normalised response (HCC1937 [10]) [%]	normalised response (HDQ-P1 [11]) [%]	normalised response (Hs578T [12]) [%]	normalised response (MCF-10A [13]) [%]	normalised response (MDA-MB-231 [14]) [%]	normalised response (MDA-MB-436 [15]) [%]	normalised response (MDA-MB-453 [16]) [%]	normalised response (MDA-MB-468 [17]) [%]	normalised response (MFM-223 [18]) [%]	normalised response (BT-474 [19]) [%]	normalised response (BT-549 [20]) [%]	normalised response (CAL-120 [21]) [%]	normalised response (CAL-148 [22]) [%]	normalised response (CAL-51 [23]) [%]	normalised response (CAL-85-1 [24]) [%]	normalised response (DU-4475 [25]) [%]	normalised response (HCC1143 [26]) [%]	normalised response (HCC1599 [27]) [%]	normalised response (HCC1937 [28]) [%]	normalised response (HDQ-P1 [29]) [%]	normalised response (Hs578T [30]) [%]	normalised response (MCF-10A [31]) [%]	normalised response (MDA-MB-231 [32]) [%]	normalised response (MDA-MB-436 [33]) [%]	normalised response (MDA-MB-453 [34]) [%]	normalised response (MDA-MB-468 [35]) [%]	normalised response (MFM-223 [36]) [%]	normalised response (SK-BR-3) [%]
Nc1ncn([C@@H]2O[C@H](CO)[C@@H](O)[C@H]2O)c(=O)n1 [Azacitidine] (100 nM)	101	99.9	96.9	103	99.3	108	98.2	56	98	99.4	64.8	103	87	88.1	79.5	83.8	115	97.8	102	101	96.3	101	99.8	99.1	91.1	98.6	100	97	103	100	103	98.1	99	89	96.4	98	96
CC1(C)CCC(CN2CCN(c3ccc(C(=O)NS(=O)(=O)c4ccc(NCC5CCOCC5)c([N+](=O)[O-])c4)c(Oc4cnc5[nH]ccc5c4)c3)CC2)=C(c2ccc(Cl)cc2)C1 [ABT-199] (100 nM)	101	–	101	84.2	101	94.6	99.3	91.6	99.2	89.3	93.6	104	81.7	105	83	101	–	79.9	96.7	100	101	98.9	92.4	101	102	102	94.2	98.2	104	107	98.2	99.3	96.7	90.7	93.6	99.2	101
Cn1cnc2c(F)c(Nc3ccc(Br)cc3Cl)c(C(=O)NOCCO)cc21 [Selumetinib] (100 nM)	96.5	104	95.8	90.4	98.7	94.9	92.2	86.3	89.2	100	97.9	102	94.8	77.1	77.2	101	75.3	94.9	84.2	104	90	94	94.1	100	81	92	113	85	70.6	89.4	45.7	84.7	96.2	103	89.6	94.9	91
CC(=O)O[C@@]12CO[C@@H]1C[C@H](O)[C@@]1(C)C(=O)[C@H](O)C3=C(C)[C@@H](OC(=O)[C@H](O)[C@@H](NC(=O)OC(C)(C)C)c4ccccc4)C[C@@](O)([C@@H](OC(=O)c4ccccc4)[C@H]21)C3(C)C [Docetaxel] (10 nM)	65.8	63.4	88.8	61.8	11.5	26.6	94	88.9	95.8	24.7	-5.27	39.5	56.1	-111	79.8	99.3	104	77.9	67.8	20.5	61.7	38.2	43.1	26.6	68.8	35.5	71.9	67.3	69.4	28.1	46.2	53.4	40.7	61.2	22.7	54.3	12.2

— the supplement of paper PMC4862054
